Peptide text beside a SMILES is read from it.
Key:
[1] = test system: Staphylococcus aureus CVCC 546; assay: microbe, parasite or virus in culture; type: cell-based; details: Table 1; – = no activity
Method: (§1) The minimal inhibitory concentration (MIC) was evaluated by a microtiter plate assay ([Wiegand et al., 2008]). Serial 2-fold dilutions of test peptides were placed into a 96-well plate containing identical bacterial inoculum and incubated at 37°C for 16∼20 h. Vancomycin was used as antibiotic control. The MIC value was defined as the lowest peptide concentration where no visible growth occurred. All tests were made in triplicate.

S. aureus ATCC 43300 = type: cell-based, Staphylococcus aureus; details: microtiter, serial 2-fold dilutions, 37°C, 16∼20 h, triplicate; – = no activity
Method: as §1

SMILES	MIC [1]	A1 (MIC against S. aureus ATCC 43300) (S. aureus ATCC 43300) [µg/mL]
CC[C@H](C)[C@@H]1NC(=O)[C@@H]2CSSC[C@@H](C(=O)N[C@@H](CCCNC(=N)N)C(=O)N[C@@H](CCCCN)C(=O)O)NC(=O)[C@H](CC(N)=O)NC(=O)[C@@H]3CSSC[C@H](NC(=O)[C@H](C)NC(=O)[C@H](C)NC(=O)[C@H](Cc4c[nH]cn4)NC(=O)CNC(=O)[C@H](C(C)C)NC(=O)[C@H](CCCCN)NC(=O)[C@H](Cc4ccccc4)NC(=O)[C@@H]4CCCN4C(=O)[C@H]([C@@H](C)O)NC(=O)[C@H](CC(C)C)NC(=O)[C@H](CC(C)C)NC(=O)[C@H](CC(=O)O)NC(=O)[C@@H](NC(=O)[C@@H](NC(=O)[C@H](C)N)[C@@H](C)O)CSSC[C@H](NC(=O)[C@H](Cc4c[nH]c5ccccc45)NC(=O)CNC(=O)CNC(=O)[C@H](CCCNC(=N)N)NC(=O)[C@H](CCCCN)NC(=O)CNC(=O)[C@H](CCCNC(=N)N)NC(=O)[C@H](C)NC1=O)C(=O)N[C@@H](CC(=O)O)C(=O)N[C@@H](CCCCN)C(=O)N[C@@H](CCCNC(=N)N)C(=O)N[C@@H](C)C(=O)N[C@@H](C(C)C)C(=O)N3)C(=O)N[C@@H](C)C(=O)N[C@@H](C)C(=O)N[C@@H](Cc1c[nH]cn1)C(=O)N2 [ID6] (HELM PEPTIDE1{A.T.C.D.L.L.T.P.F.K.V.G.H.A.A.C.A.A.H.C.I.A.R.G.K.R.G.G.W.C.D.K.R.A.V.C.N.C.R.K}$PEPTIDE1,PEPTIDE1,3:R3-30:R3|PEPTIDE1,PEPTIDE1,16:R3-36:R3|PEPTIDE1,PEPTIDE1,20:R3-38:R3$$$V2.0; N-terminus and C-terminus assumed; bridges inferred)	16	8
CC[C@H](C)[C@@H]1NC(=O)[C@@H]2CSSC[C@@H](C(=O)N[C@@H](CCCNC(=N)N)C(=O)N[C@@H](CCCCN)C(=O)O)NC(=O)[C@H](CC(N)=O)NC(=O)[C@@H]3CSSC[C@H](NC(=O)[C@H](C)NC(=O)[C@H](C)NC(=O)[C@H](Cc4c[nH]cn4)NC(=O)CNC(=O)[C@H](C(C)C)NC(=O)CNC(=O)[C@H](Cc4ccccc4)NC(=O)[C@@H]4CCCN4C(=O)[C@H](CO)NC(=O)[C@H](CC(C)C)NC(=O)[C@H](CC(C)C)NC(=O)[C@H](CC(=O)O)NC(=O)[C@@H](NC(=O)[C@@H](NC(=O)[C@H](C)N)[C@@H](C)O)CSSC[C@H](NC(=O)[C@H](Cc4c[nH]c5ccccc45)NC(=O)CNC(=O)CNC(=O)[C@H](CCCNC(=N)N)NC(=O)[C@H](CCCCN)NC(=O)CNC(=O)[C@H](CCCNC(=N)N)NC(=O)[C@H](C)NC1=O)C(=O)N[C@@H](CC(=O)O)C(=O)NCC(=O)N[C@@H](CCCNC(=N)N)C(=O)N[C@@H](C)C(=O)N[C@@H](C(C)C)C(=O)N3)C(=O)N[C@@H](C)C(=O)N[C@@H](C)C(=O)N[C@@H](Cc1c[nH]cn1)C(=O)N2 [ID16] (HELM PEPTIDE1{A.T.C.D.L.L.S.P.F.G.V.G.H.A.A.C.A.A.H.C.I.A.R.G.K.R.G.G.W.C.D.G.R.A.V.C.N.C.R.K}$PEPTIDE1,PEPTIDE1,3:R3-30:R3|PEPTIDE1,PEPTIDE1,16:R3-36:R3|PEPTIDE1,PEPTIDE1,20:R3-38:R3$$$V2.0; N-terminus and C-terminus assumed; bridges inferred)	16	8
CC[C@H](C)[C@@H]1NC(=O)[C@@H]2CSSC[C@@H](C(=O)N[C@@H](CCCNC(=N)N)C(=O)N[C@@H](CC(N)=O)C(=O)O)NC(=O)[C@H](CC(N)=O)NC(=O)[C@@H]3CSSC[C@H](NC(=O)[C@H](C)NC(=O)[C@H](C)NC(=O)[C@H](Cc4c[nH]cn4)NC(=O)CNC(=O)[C@H](C(C)C)NC(=O)CNC(=O)[C@H](Cc4ccccc4)NC(=O)[C@@H]4CCCN4C(=O)[C@H](CO)NC(=O)[C@H](CC(C)C)NC(=O)[C@H](CC(C)C)NC(=O)[C@H](CC(=O)O)NC(=O)[C@@H](NC(=O)[C@@H](NC(=O)[C@H](C)N)[C@@H](C)O)CSSC[C@H](NC(=O)[C@H](Cc4c[nH]c5ccccc45)NC(=O)CNC(=O)CNC(=O)[C@H](CCCNC(=N)N)NC(=O)[C@H](CCCCN)NC(=O)CNC(=O)[C@H](CCCNC(=N)N)NC(=O)[C@H](C)NC1=O)C(=O)N[C@@H](CC(=O)O)C(=O)N[C@@H](CCCCN)C(=O)N[C@@H](CCCNC(=N)N)C(=O)N[C@@H](C)C(=O)N[C@@H](C(C)C)C(=O)N3)C(=O)N[C@@H](C)C(=O)N[C@@H](C)C(=O)N[C@@H](Cc1c[nH]cn1)C(=O)N2 [ID17] (HELM PEPTIDE1{A.T.C.D.L.L.S.P.F.G.V.G.H.A.A.C.A.A.H.C.I.A.R.G.K.R.G.G.W.C.D.K.R.A.V.C.N.C.R.N}$PEPTIDE1,PEPTIDE1,3:R3-30:R3|PEPTIDE1,PEPTIDE1,16:R3-36:R3|PEPTIDE1,PEPTIDE1,20:R3-38:R3$$$V2.0; N-terminus and C-terminus assumed; bridges inferred)	64	16
CC[C@H](C)[C@@H]1NC(=O)[C@@H]2CSSC[C@@H](C(=O)N[C@@H](CCCNC(=N)N)C(=O)N[C@@H](CCCCN)C(=O)O)NC(=O)[C@H](CC(N)=O)NC(=O)[C@@H]3CSSC[C@H](NC(=O)[C@H](C)NC(=O)[C@H](C)NC(=O)[C@H](Cc4c[nH]cn4)NC(=O)CNC(=O)[C@H](C(C)C)NC(=O)[C@H](CCCCN)NC(=O)[C@H](Cc4ccccc4)NC(=O)[C@@H]4CCCN4C(=O)[C@H](CO)NC(=O)[C@H](CC(C)C)NC(=O)[C@H](CC(C)C)NC(=O)[C@H](CC(=O)O)NC(=O)[C@@H](NC(=O)[C@@H](NC(=O)[C@H](C)N)[C@@H](C)O)CSSC[C@H](NC(=O)[C@H](Cc4c[nH]c5ccccc45)NC(=O)CNC(=O)CNC(=O)[C@H](CCCNC(=N)N)NC(=O)[C@H](CC(N)=O)NC(=O)CNC(=O)[C@H](CCCNC(=N)N)NC(=O)[C@H](C)NC1=O)C(=O)N[C@@H](CC(=O)O)C(=O)NCC(=O)N[C@@H](CCCNC(=N)N)C(=O)N[C@@H](C)C(=O)N[C@@H](C(C)C)C(=O)N3)C(=O)N[C@@H](C)C(=O)N[C@@H](C)C(=O)N[C@@H](Cc1c[nH]cn1)C(=O)N2 [ID18] (HELM PEPTIDE1{A.T.C.D.L.L.S.P.F.K.V.G.H.A.A.C.A.A.H.C.I.A.R.G.N.R.G.G.W.C.D.G.R.A.V.C.N.C.R.K}$PEPTIDE1,PEPTIDE1,3:R3-30:R3|PEPTIDE1,PEPTIDE1,16:R3-36:R3|PEPTIDE1,PEPTIDE1,20:R3-38:R3$$$V2.0; N-terminus and C-terminus assumed; bridges inferred)	–	16
CC[C@H](C)[C@@H]1NC(=O)[C@@H]2CSSC[C@@H](C(=O)N[C@@H](CCCNC(=N)N)C(=O)N[C@@H](CC(N)=O)C(=O)O)NC(=O)[C@H](CC(N)=O)NC(=O)[C@@H]3CSSC[C@H](NC(=O)[C@H](C)NC(=O)[C@H](C)NC(=O)[C@H](Cc4c[nH]cn4)NC(=O)CNC(=O)[C@H](C(C)C)NC(=O)[C@H](CCCCN)NC(=O)[C@H](Cc4ccccc4)NC(=O)[C@@H]4CCCN4C(=O)[C@H](CO)NC(=O)[C@H](CC(C)C)NC(=O)[C@H](CC(C)C)NC(=O)[C@H](CC(=O)O)NC(=O)[C@@H](NC(=O)[C@@H](NC(=O)[C@H](C)N)[C@@H](C)O)CSSC[C@H](NC(=O)[C@H](Cc4c[nH]c5ccccc45)NC(=O)CNC(=O)CNC(=O)[C@H](CCCNC(=N)N)NC(=O)[C@H](CCCCN)NC(=O)CNC(=O)[C@H](CCCNC(=N)N)NC(=O)[C@H](C)NC1=O)C(=O)N[C@@H](CC(=O)O)C(=O)NCC(=O)N[C@@H](CCCNC(=N)N)C(=O)N[C@@H](C)C(=O)N[C@@H](C(C)C)C(=O)N3)C(=O)N[C@@H](C)C(=O)N[C@@H](C)C(=O)N[C@@H](Cc1c[nH]cn1)C(=O)N2 [ID20] (HELM PEPTIDE1{A.T.C.D.L.L.S.P.F.K.V.G.H.A.A.C.A.A.H.C.I.A.R.G.K.R.G.G.W.C.D.G.R.A.V.C.N.C.R.N}$PEPTIDE1,PEPTIDE1,3:R3-30:R3|PEPTIDE1,PEPTIDE1,16:R3-36:R3|PEPTIDE1,PEPTIDE1,20:R3-38:R3$$$V2.0; N-terminus and C-terminus assumed; bridges inferred)	–	16
CC[C@H](C)[C@@H]1NC(=O)[C@@H]2CSSC[C@@H](C(=O)N[C@@H](CCCNC(=N)N)C(=O)N[C@@H](CCCCN)C(=O)O)NC(=O)[C@H](CC(N)=O)NC(=O)[C@@H]3CSSC[C@H](NC(=O)[C@H](C)NC(=O)[C@H](C)NC(=O)[C@H](Cc4c[nH]cn4)NC(=O)CNC(=O)[C@H](C(C)C)NC(=O)[C@H](CCCCN)NC(=O)[C@H](Cc4ccccc4)NC(=O)[C@@H]4CCCN4C(=O)[C@H](CO)NC(=O)[C@H](CC(C)C)NC(=O)[C@H](CC(C)C)NC(=O)[C@H](CC(=O)O)NC(=O)[C@@H](NC(=O)[C@@H](NC(=O)[C@H](C)N)[C@@H](C)O)CSSC[C@H](NC(=O)[C@H](Cc4c[nH]c5ccccc45)NC(=O)CNC(=O)CNC(=O)[C@H](CCCNC(=N)N)NC(=O)[C@H](CCCCN)NC(=O)CNC(=O)[C@H](CCCNC(=N)N)NC(=O)[C@H](C)NC1=O)C(=O)N[C@@H](CC(=O)O)C(=O)N[C@@H](CCCCN)C(=O)N[C@@H](CCCNC(=N)N)C(=O)N[C@@H](C)C(=O)N[C@@H](C(C)C)C(=O)N3)C(=O)N[C@@H](C)C(=O)N[C@@H](CC(C)C)C(=O)N[C@@H](Cc1c[nH]cn1)C(=O)N2 [ID27] (HELM PEPTIDE1{A.T.C.D.L.L.S.P.F.K.V.G.H.A.A.C.A.L.H.C.I.A.R.G.K.R.G.G.W.C.D.K.R.A.V.C.N.C.R.K}$PEPTIDE1,PEPTIDE1,3:R3-30:R3|PEPTIDE1,PEPTIDE1,16:R3-36:R3|PEPTIDE1,PEPTIDE1,20:R3-38:R3$$$V2.0; N-terminus and C-terminus assumed; bridges inferred)	8	8

Source: paper PMC7291858, “An Enhanced Variant Designed From DLP4 Cationic Peptide Against Staphylococcus aureus CVCC 546” (Frontiers in Microbiology, 2020)
